Assay results reported in ChEMBL document CHEMBL3112525, “Synthesis and biological evaluation of 4-(1,2,3-triazol-1-yl)coumarin derivatives as potential antitumor agents” (Bioorg Med Chem Lett, 2014).

Tests used:
SW480 = experiment: Antiproliferative activity against human SW480 cells after 48 hrs by MTT assay; type: functional, cell-based; settings: SW480, 48 h
MCF7 [1] = experiment: Antiproliferative activity against human MCF7 cells after 48 hrs by MTT assay; type: functional, cell-based; settings: MCF7, 48 h
A549 [2] = experiment: Antiproliferative activity against human A549 cells after 48 hrs by MTT assay; type: functional, cell-based; settings: A549, 48 h
MCF7 [3] = experiment: Cell cycle arrest in human MCF7 cells assessed as accumulation at S phase at 5 uM after 48 hrs by flow cytometry (Rvb =31.40 %); type: functional
A549 [4] = experiment: Induction of apoptosis in human A549 cells assessed as late necrotic cells at after 48 hrs by annexin V-FITC and propidium iodide staining-based flow cytometry (reference value: 0.920 %); type: functional
A549 [5] = experiment: Induction of apoptosis in human A549 cells assessed as viable cells at after 48 hrs by annexin V-FITC and propidium iodide staining-based flow cytometry (reference value: 95.5 %); type: functional
A549 [6] = experiment: Induction of apoptosis in human A549 cells assessed as late apoptotic cells at after 48 hrs by annexin V-FITC and propidium iodide staining-based flow cytometry (reference value: 2.87 %); type: functional
A549 [7] = experiment: Induction of apoptosis in human A549 cells assessed as early apoptotic cells at after 48 hrs by annexin V-FITC and propidium iodide staining-based flow cytometry (reference value: 0.720 %); type: functional
MCF7 [8] = experiment: Cell cycle arrest in human MCF7 cells assessed as accumulation at G1 phase at 5 uM after 48 hrs by flow cytometry (Rvb =52.82 %); type: functional
MCF7 [9] = experiment: Cell cycle arrest in human MCF7 cells assessed as accumulation at G2/M phase at 5 uM after 48 hrs by flow cytometry (Rvb =15.78 %); type: functional

Row | SMILES | IC50 (SW480) [µM] | IC50 (MCF7 [1]) [µM] | IC50 (A549 [2]) [µM] | also measured
1 | O=c1cc(-n2cc(COc3ccc(C(F)(F)F)cc3)nn2)c2cc(Br)ccc2o1 | 3.09 | 11.4 | 1.62 | –
2 | O=c1cc(-n2cc(COc3ccnc4ccc(Br)cc34)nn2)c2cc(Br)ccc2o1 | 16.9 | 41.6 | 13.3 | –
3 | O=c1cc(-n2cc(COc3ccccc3)nn2)c2cc(OCCN3CCOCC3)ccc2o1 | > 50 | > 50 | > 50 | –
4 | COc1ccc(CN2CCN(c3cc(=O)oc4ccccc34)CC2)cc1OC | > 50 | > 50 | > 50 | –
5 | O=c1cc(-n2cc(COc3ccccc3)nn2)c2cc(O)ccc2o1 | > 50 | > 50 | > 50 | –
6 | O=c1cc(N2CCN(Cc3ccccc3)CC2)c2ccccc2o1 | > 50 | > 50 | > 50 | –
7 | CCc1ccc(OCc2cn(-c3cc(=O)oc4ccc(Br)cc34)nn2)cc1 | 10.8 | 12.7 | 11.6 | –
8 | O=[N+]([O-])c1cnc2ccc(Br)cc2c1-n1cc(CSc2ccccc2)nn1 | – | 22.7 | – | –
9 | O=c1cc(-n2cc(CSc3ccccc3)nn2)c2cc(Br)ccc2o1 | 15.4 | 36.8 | 3.51 | –
10 | COC(=O)c1ccccc1OCc1cn(-c2cc(=O)oc3ccc(Br)cc23)nn1 | 20.2 | 34.1 | 5.25 | –
11 | COc1ccc(OCCN2CCN(c3cc(=O)oc4ccccc34)CC2)cc1 | 35 | 24.2 | 21.6 | –
12 | O=c1cc(-n2cc(COc3ccccc3Br)nn2)c2cc(Br)ccc2o1 | 20.1 | 28.9 | 8.43 | –
13 | CCOC(=O)c1ccc(OCc2cn(-c3c([N+](=O)[O-])cnc4ccc(Br)cc34)nn2)cc1 | – | 13.9 | – | –
14 | COc1ccc(CN2CCN(c3cc(=O)oc4ccccc34)CC2)cc1 | > 50 | > 50 | > 50 | –
15 | O=c1cc(-n2cc(COc3ccccc3)nn2)c2ccc(OS(=O)(=O)c3ccc(F)cc3)cc2o1 | > 50 | > 50 | > 50 | –
16 | O=c1cc(N2CCN(CCOc3ccc(F)cc3)CC2)c2ccccc2o1 | 24 | > 50 | 11.9 | –
17 | O=c1cc(-n2cc(-c3ccccc3)nn2)c2cc(Br)ccc2o1 | 6.66 | 9.45 | 11.2 | –
18 | O=c1cc(N2CCN(Cc3cccc(O)c3)CC2)c2ccccc2o1 | > 50 | > 50 | > 50 | –
19 | CS(=O)(=O)Oc1ccc2c(-n3cc(COc4ccccc4)nn3)cc(=O)oc2c1 | 10.7 | 45.8 | 9.14 | –
20 | O=c1cc(-n2cc(COc3ccccc3O)nn2)c2cc(Br)ccc2o1 | 19.1 | 24.8 | 7.94 | –
21 | O=c1cc(N2CCN(Cc3ccc(F)cc3)CC2)c2ccccc2o1 | > 50 | > 50 | > 50 | –
22 | O=c1cc(-n2cc(CNc3ccccc3)nn2)c2cc(Br)ccc2o1 | 18.4 | > 50 | 13.2 | –
23 | O=c1cc(N2CCN(Cc3ccccc3O)CC2)c2ccccc2o1 | > 50 | > 50 | > 50 | –
24 | O=c1cc(-n2cc(COc3cccnc3)nn2)c2cc(Br)ccc2o1 | 39.8 | 39.8 | 24.8 | –
25 | COc1cc(CN2CCN(c3cc(=O)oc4ccccc34)CC2)ccc1O | > 50 | > 50 | > 50 | –

These reach a lower IC50 (MCF7 [1]). Values come first.

Row | IC50 (SW480) [µM] | IC50 (MCF7 [1]) [µM] | IC50 (A549 [2]) [µM] | SMILES | also measured
26 | 25.9 | 8.56 | 3.15 | COc1ccc2oc(=O)cc(-n3cc(COc4ccc(F)cc4)nn3)c2c1 | –
27 | – | 7.69 | – | O=[N+]([O-])c1cnc2ccc(Br)cc2c1-n1cc(COc2ccccc2)nn1 | –
28 | 1.77 | 7 | 0.85 | O=c1cc(-n2cc(COc3ccc(F)cc3)nn2)c2cc(Br)ccc2o1 | –
29 | 1.99 | 5.89 | 0.52 | COc1ccc2c(-n3cc(COc4ccc(F)cc4)nn3)cc(=O)oc2c1 | Activity (MCF7 [3]): 12.73%; Activity (A549 [4]): 12.3%; Activity (A549 [5]): 52.3%; Activity (A549 [6]): 15.9%; Activity (A549 [7]): 19.5%; Activity (MCF7 [8]): 3.06%; Activity (MCF7 [9]): 84.21%
30 | 3.82 | 5.84 | 0.68 | O=c1cc(-n2cc(COc3ccc(F)cc3)nn2)c2ccccc2o1 | –
31 | 2.72 | 4.62 | 2.01 | O=c1cc(-n2cc(COc3ccc(F)cc3)nn2)c2cc(O)ccc2o1 | –
32 | 2.43 | 3.51 | 1.65 | COc1cccc2c1C(=O)c1c(O)c3c(c(O)c1C2=O)C[C@@](O)(C(=O)CO)C[C@@H]3O[C@H]1C[C@H](N)[C@H](O)[C@H](C)O1 [DOXORUBICIN] | –
33 | 3.62 | 3.13 | 0.66 | COC(=O)c1ccc(OCc2cn(-c3cc(=O)oc4ccc(Br)cc34)nn2)cc1 | –
34 | 2.09 | 2.04 | 11.8 | Nc1ccc(OCc2cn(-c3cc(=O)oc4ccc(Br)cc34)nn2)cc1 | –
35 | 1.31 | 1.92 | 24.5 | O=c1cc(-n2cc(COc3ccc(Br)cc3)nn2)c2cc(Br)ccc2o1 | –
36 | 4.99 | 1.72 | 12.3 | O=c1cc(-n2cc(COc3ccccc3)nn2)c2cc(Br)ccc2o1 | –
